Test results taken from patent publication US20210128645A1, “INTESTINAL MICROBE HAVING D-PSICOSE-RESPONSIVE PROLIFERATION” (priority 2018, published 2021).

Experiments:
[1] = system: male C57BL/6J mice fed a high-fat diet; test: High-fat diet mouse experiment with D-psicose drinking water: body weight gain and fasting blood glucose; format: in vivo
Procedure: Eight-week-old (week 0) male C57BL/6J mice (total 4 groups, n=7) were fed a high-fat diet and tap water (control) or D-psicose-containing water, or antibiotics in addition to these (Control+Abx, D-psicose+Abx). During the experimental period, the body weight of the mice, the water intake, and the food intake were measured weekly, and the feces were collected. The samples at weeks 0 and 5 were used for analysis. The fasting blood glucose level was measured at week 9. The mice were dissected after 11 weeks.
(§1) The average (g) of the body weight gain at week 5 (13 weeks old) from start of rearing (8 weeks old) is shown (n =7). The error bars represent standard deviations (SDs). Control (white): high-fat diet+tap water, D-psicose (black): high-fat diet +5.0% D-psicose, Abx−: without antibiotic treatment, Abx+: with antibiotic treatment. The antibiotics were 0.1% ampicillin sodium, 0.1% neomycin sulfate, and 0.05% vancomycin hydrochloride. The Student's t-test was used in significance testing. A p-value of 0.05 or less is considered significant and indicated by*in the figure.
as §1, with “15-hour fasting blood glucose level (mg/dl)” for “average (g) of the body weight gain”, “9 after” for “5 (13 weeks old) from”, “rearing” for “rearing (8 weeks old)”, “(n=7).” for “(n =7).”
(§2) Twenty eight 6-week-old male C57BL/6J mice (CLEA Japan, Inc.) were provided and fed a normal diet CE-2 (CLEA Japan, Inc.) and tap water for 2 weeks, followed by acclimation. The mice were divided into 4 groups (7 mice per group): (i) tap water-administered group, (ii) D-psicose water-administered group, (iii) tap water and antibiotic-administered group, and (iv) D-psicose water and antibiotic-administered group. The experiment was started at 8 weeks old. For food, the mice in all groups were freely fed a high-fat diet HFD32 (CLEA Japan, Inc.). […] During the experimental period, the body weight of the mice, the water intake, and the food intake were measured weekly, and the feces were collected. […] At week 9 (17 weeks old) from the start of the experiment, the fasting blood glucose level, an indicator of diabetes, was measured. After 15-hour fasting, the side of the tail was pricked with a syringe needle (Terumo Corporation), and the blood glucose level was measured by using a glucometer (Nipro StatStrip XP3). […]

[2] = system: genus Atopobium (intestinal microbe, SEQ ID NO:1 OTU); test: 16S rRNA gene analysis of intestinal microbiota in fecal samples of D-psicose-administered mice; format: in vivo, mouse; conditions: 5.0% D-psicose water, high-fat diet, fecal samples at week 5, vs tap water control (FIG. 4)
Procedure: The relative abundance of the genus Atopobium in the fecal samples at week 5 from start of rearing is shown. The relative abundance is calculated as the percentage of the genus Atopobium in the total reads. Control (white): high-fat diet+tap water, D-psicose (black): high-fat diet +5.0% D-psicose. The Mann-Whitney U test was used in significance testing. A p-value of 0.001 or less is considered significant and indicated by P<0.001: in the figure.
as §2, with “old.” for “old. For food, the mice in all groups were freely fed a high-fat diet HFD32 (CLEA Japan, Inc.).”

O=C(CO)[C@H](O)[C@H](O)[C@H](O)CO [D-psicose]
body weight gain due to the intake of high-fat diet ([1]; 5.0% (w/v) D-psicose in drinking water, without antibiotic treatment, week 5, vs tap water control (FIG. 2)): significantly suppresses the body weight gain
suppression of body weight gain ([1]; 5.0% D-psicose water plus antibiotics (0.1% ampicillin sodium, 0.1% neomycin sulfate, 0.05% vancomycin hydrochloride), intestinal microbes removed (FIG. 2)): not observed
fasting blood glucose level, difference between groups ([1]; 5.0% D-psicose water plus antibiotics vs tap water plus antibiotics, 15-hour fasting, week 9 (FIG. 3)): no significant difference
fasting blood glucose level ([1]; 5.0% D-psicose water, without antibiotics, 15-hour fasting, week 9, vs tap water control (FIG. 3)): significantly reduces the blood glucose level
growth (relative abundance) of the intestinal microbe, genus Atopobium, in feces [2]: significantly grows
